From patent publication US10407467B2, “Polymyxin derivatives and their use in combination therapy together with different antibiotics” (priority 2013, dated 2019)
Counter-ions that a name gives are not always drawn. Bridge positions count the residues as written; N and C are the ends. Square brackets hold non-standard residues; d marks the D form. Peptide text beside a SMILES is read from it. * marks the point of attachment. ξ: configuration not given here. X8 = N[C@@H]1CC[C@H](C(=O)*)C1; Thr(3ξ) = CC(O)[C@H](N)C(=O)O; X5 = O=C(C[C@@H]1CCCCN1)*; Dab = NCC[C@H](N)C(=O)O

What was measured:
Experiment in all cases: MIC, compound in combination with a second agent (broth microdilution)
Type in all cases: cell-based
Details in all cases: 1:1 (wt:wt) combination with Rifampicin
Acinetobacter baumannii = test system: Acinetobacter baumannii
How it was run: (§1)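 MIC = combined concentration of test compound plus partner agent, mixed at equal mass (1:1 w/w, salt form as used). Up to four strains per species; colonies adjusted to 0.5 McFarland. Run in duplicate; >2-fold disagreement invalidates the run.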

Escherichia coli = test system: Escherichia coli
How it was run: as §1

Klebsiella pneumoniae = test system: Klebsiella pneumoniae
How it was run: as §1

Pseudomonas aeruginosa = test system: Pseudomonas aeruginosa
How it was run: as §1

[1] = MIC = total drug concentration, strain ATCC BAA-747
[2] = MIC = total drug concentration, strain CCUG57249
[3] = MIC = total drug concentration, strain NCTC 13423
[4] = MIC = total drug concentration, strain NCTC 13424
[5] = MIC is total drug concentration
[6] = MIC = total drug concentration, strain NCTC9001
[7] = MIC = total drug concentration, strain ATCC-BAA-2146
[8] = MIC = total drug concentration, strain CCUG-59348
[9] = MIC = total drug concentration, strain NCTC 13438
[10] = MIC = total drug concentration, strain ATCC 27853
[11] = MIC = total drug concentration, strain ATCC-47
[12] = MIC = total drug concentration, strain CCUG 59626

| SMILES | MIC A. baumannii ATCC BAA-747 (Acinetobacter baumannii; [1]) [micrograms/mL] | MIC A. baumannii CCUG57249 (Acinetobacter baumannii; [2]) [micrograms/mL] | MIC A. baumannii NCTC 13423 (Acinetobacter baumannii; [3]) [micrograms/mL] | MIC A. baumannii NCTC 13424 (Acinetobacter baumannii; [4]) [micrograms/mL] | MIC E. coli NCTC9001 (Escherichia coli; [6]) [micrograms/mL] | MIC K. pneumoniae ATCC-BAA-2146 (Klebsiella pneumoniae; [7]) [micrograms/mL] | MIC K. pneumoniae CCUG-59348 (Klebsiella pneumoniae; [8]) [micrograms/mL] | MIC K. pneumoniae NCTC 13438 (Klebsiella pneumoniae; [9]) [micrograms/mL] | MIC P. aeruginosa ATCC 27853 (Pseudomonas aeruginosa; [10]) [micrograms/mL] | MIC P. aeruginosa ATCC-47 (Pseudomonas aeruginosa; [11]) [micrograms/mL] | MIC P. aeruginosa CCUG 59626 (Pseudomonas aeruginosa; [12]) [micrograms/mL] | further results |
| --- | --- | --- | --- | --- | --- | --- | --- | --- | --- | --- | --- | --- |
| CC(C)C[C@@H]1NC(=O)[C@@H](Cc2ccccc2)NC(=O)[C@H](CCN)NC(=O)[C@@H](NC(=O)[C@H](CCN)NC(=O)[C@@H](NC(=O)C[C@@H]2CCCCN2)C(C)O)CCNC(=O)[C@H](C(C)O)NC(=O)[C@H](CCN)NC(=O)[C@H](CCN)NC1=O (stereo partly drawn) [Example 33, (2S)-piperidin-2-yl-ethanoyl polymyxin B nonapeptide, trifluoroacetate salt] (X5-[Thr(3ξ)][Dab][Dab][Dab][dF]L[Dab][Dab][Thr(3ξ)]; lactam 3-C) | ≤0.06 | ≤0.06 | ≤0.06 | ≤0.06 | 0.125 | 0.125 | 2 | 0.125 | ≤0.06 | ≤0.06 | ≤0.06 | MIC A. baumannii ATCC BAA-747 (Acinetobacter baumannii; [5]): ≤0.06 micrograms/mL; MIC A. baumannii CCUG57249 (Acinetobacter baumannii; [5]): ≤0.06 micrograms/mL; MIC A. baumannii NCTC 13423 (Acinetobacter baumannii; [5]): ≤0.06 micrograms/mL; MIC A. baumannii NCTC 13424 (Acinetobacter baumannii; [5]): ≤0.06 micrograms/mL; MIC E. coli ATCC25922 (Escherichia coli; MIC = total drug concentration, strain ATCC25922): ≤0.06 micrograms/mL; MIC E. coli ATCC25922 (Escherichia coli; [5]): ≤0.06 micrograms/mL; MIC E. coli NCTC9001 (Escherichia coli; [5]): 0.125 micrograms/mL; MIC K. pneumoniae ATCC-BAA-2146 (Klebsiella pneumoniae; [5]): 0.125 micrograms/mL; MIC K. pneumoniae CCUG-59348 (Klebsiella pneumoniae; [5]): 2 micrograms/mL; MIC K. pneumoniae NCTC 13438 (Klebsiella pneumoniae; [5]): 0.125 micrograms/mL; MIC P. aeruginosa ATCC CRM-9027 (Pseudomonas aeruginosa; MIC = total drug concentration, strain ATCC CRM-9027): ≤0.06 micrograms/mL; MIC P. aeruginosa ATCC 27853 (Pseudomonas aeruginosa; [5]): ≤0.06 micrograms/mL; MIC P. aeruginosa ATCC CRM-9027 (Pseudomonas aeruginosa; [5]): ≤0.06 micrograms/mL; MIC P. aeruginosa ATCC-47 (Pseudomonas aeruginosa; [5]): ≤0.06 micrograms/mL; MIC P. aeruginosa CCUG 59626 (Pseudomonas aeruginosa; [5]): ≤0.06 micrograms/mL |
| CC(C)C[C@@H]1NC(=O)[C@@H](Cc2ccccc2)NC(=O)[C@H](CCN)NC(=O)[C@@H](NC(=O)[C@H](CCN)NC(=O)[C@@H](NC(=O)[C@H]2CC[C@@H](N)C2)C(C)O)CCNC(=O)[C@H](C(C)O)NC(=O)[C@H](CCN)NC(=O)[C@H](CCN)NC1=O (stereo partly drawn) [Example 34A, (1S,3R)-3- Aminocyclopentane carbonyl polymyxin B nonapeptide, trifluoroacetate salt] (X8-[Thr(3ξ)][Dab][Dab][Dab][dF]L[Dab][Dab][Thr(3ξ)]; lactam 3-C) | ≤0.06 | ≤0.06 | ≤0.06 | ≤0.06 | 0.125 | 0.125 | 4 | 0.25 | 0.125 | 0.125 | 0.125 | MIC E. coli ATCC25922 (Escherichia coli; MIC = total drug concentration, strain ATCC25922, trifluoroacetate salt): ≤0.06 micrograms/mL; MIC P. aeruginosa ATCC CRM-9027 (Pseudomonas aeruginosa; MIC = total drug concentration, strain ATCC CRM-9027, trifluoroacetate salt): 0.125 micrograms/mL |
